Data: patent US20160206688A1, “METHODS FOR TREATING BACTEREMIA AND OSTEOMYELITIS USING ORITAVANCIN” (THE MEDICINES COMPANY, priority 2013, published 2016)
≈ marks a conversion by molar mass, not a printed value. Read-outs that look alike come from different tables or passages of the source.

Columns and labels:
[1] = tested on: Coagulase-negative staphylococci; assay: Broth microdilution MIC, European bacteraemia isolates 2010-2012; format: cell-based, coagulase-negative staphylococci (CoNS); conditions: Coagulase-negative staphylococci (646); for % Resistant, CLSI: CLSI M100-S23 breakpoints
Protocol: (§1) A total of 2,904 clinical strains responsible for documented bacteremia among unique hospitalized patients in 38 hospitals in 11 European Union countries. Israel, Russia, Turkey and Ukraine were included in this study (2010-2012). Isolates were submitted to a central monitoring laboratory (JMI Laboratories, North Liberty. Iowa. USA), following previously established protocols. Bacterial species identification was performed by using an automated system (Vitek®2; bioMèrieux, Hazelwood, Mo., USA) or conventional biochemical algorithms, as required.
(§2) Isolates were tested for susceptibility by broth microdilution methods following the Clinical and Laboratory Standards Institute (CLSI; M07-A9, 2012) document. Susceptibility testing was performed in cation-adjusted Mueller-Hinton broth (CA-MHB) using dry-form panels manufactured by Thermo Fisher Scientific, formerly TREK Diagnostics Systems/Sensititre (Cleveland. Ohio, USA). These panels provide results equivalent to the CLSI-approved broth microdilution method supplemented with 0.002% polysorbate-80.
(§3) Quality assurance was performed by concurrent testing of CLSI-recommended (M100-S23, 2013) strains: E. faecalis ATCC 29212 and S. aureus ATCC 29213. Interpretation of comparator MIC results was in accordance with published CLSI (M100-S23) and European Committee on Antimicrobial Susceptibility Testing (EUCAST, 2013) criteria.

S. agalactiae = assay: Broth microdilution MIC, US isolates 2011-2012, blood vs non-blood; format: cell-based
Protocol: (§4) 527 E. faecalis, 176 E. faecium, and 790 BHS (335 S. pyogenes and 455 S. agalactiae) clinical, single patient, non-consecutive isolates were collected in 2011-2012 from 46 sites geographically distributed across the United States. The MICs were determined by broth microdilution testing performed in accordance with CLSI M7 and M100 guidelines. From the resulting database, this analysis focused on the activities of ORI, vancomycin (VAN), daptomycin (DAP), and linezolid (LZD) according to specimen source.

E. faecium [2] = assay: as above; format: cell-based
Protocol: as §4

S. pyogenes = assay: as above; format: cell-based
Protocol: as §4

E. faecalis [3] = assay: as above; format: cell-based
Protocol: as §4

MDR SA = assay: Microdilution MIC against MDR SA by specimen source; format: cell-based, S. aureus
Protocol: 456 clinical, single-patient, non-consecutive, MDR SA isolates from the known specimen sources collected in 2011-2012 were analyzed. MDR was defined as resistant to ≧3 of the following: erythromycin, clindamycin, gentamicin, levofloxacin, and trimethoprim/sulfamethoxazole. 382 were MRSA and 74 were MSSA. MICs were determined by microdilution testing in accordance with CLSI M7 and M100 guidelines. Although other comparator drugs were tested, this analysis focuses on the activities of ORI, VAN, DAP, and LZD.

S. aureus = assay: Broth microdilution MIC, European bacteraemia isolates 2010-2012; format: cell-based; conditions: S. aureus Methicillin-resistant (1,708); for % Resistant, CLSI / % Susceptible, CLSI: CLSI M100-S23 breakpoints; for % Resistant, EUCAST / % Susceptible, EUCAST: EUCAST 2013 breakpoints; for MIC50 / MIC90: Staphylococcus aureus; for MIC50 / MIC90 / MIC Range: Table 2
Protocol: as §1, §2, §3

E. faecium [4] = assay: as above; format: cell-based, Enterococcus faecium; conditions: for % Resistant, CLSI / % Susceptible, CLSI: CLSI M100-S23 breakpoints; for % Resistant, EUCAST / % Susceptible, EUCAST: EUCAST 2013 breakpoints
Protocol: as §1, §2, §3

E. faecalis [5] = assay: as above; format: cell-based, Enterococcus faecalis; conditions: for % Resistant, CLSI / % Susceptible, CLSI: CLSI M100-S23 breakpoints; for % Resistant, EUCAST / % Susceptible, EUCAST: EUCAST 2013 breakpoints; for % susceptible: E. faecalis strains, criteria not stated; for MIC50 / MIC90: Enterococcus faecalis
Protocol: as §1, §2, §3

VRE = assay: Susceptibility of the subject's blood culture isolate (treatment history); format: cell-based; conditions: 2012 July
Text: 11, 2013; the plan was for at least 8 weeks of antibiotic therapy.

[6] = E. faecium Vancomycin-resistant (VanA-phenotype) (153)
[7] = E. faecium Vancomycin-susceptible (257)
[8] = Table 2, E. faecium Vancomycin-resistant (VanA-phenotype) (153)
[9] = Table 2, E. faecium Vancomycin-susceptible (257)
[10] = Enterococcus faecium, Table 2, E. faecium Vancomycin-resistant (VanA-phenotype) (153)
[11] = Enterococcus faecium, Table 2, E. faecium Vancomycin-susceptible (257)

## CC(=O)NC[C@H]1CN(c2ccc(N3CCOCC3)c(F)c2)C(=O)O1 [Linezolid, linezolid]
[1]
  % Resistant, CLSI: 0.8%
[1]; Table 2, read-out: MIC 50%
  MIC50: 0.5 µg/mL (≈ 1.48 µM)
[1]; Table 2, read-out: MIC 90%
  MIC90: 1 µg/mL (≈ 2.96 µM)
S. agalactiae; Blood, N 100
  MIC90: 1 µg/mL (≈ 2.96 µM)
S. agalactiae; Non-Blood, N 355
  MIC90: 1 µg/mL (≈ 2.96 µM)
E. faecium [2]; Blood, N 84
  MIC90: 2 µg/mL (≈ 5.93 µM)
E. faecium [2]; Non-Blood, N 92
  MIC90: 2 µg/mL (≈ 5.93 µM)
S. pyogenes; Blood, N 53
  MIC90: 1 µg/mL (≈ 2.96 µM)
S. pyogenes; Non-Blood, N 282
  MIC90: 1 µg/mL (≈ 2.96 µM)
E. faecalis [3]; Blood, N 116
  MIC90: 2 µg/mL (≈ 5.93 µM)
E. faecalis [3]; Non-Blood, N 411
  MIC90: 2 µg/mL (≈ 5.93 µM)
MDR SA; Blood, n = 108
  MIC50: 2 µg/mL (≈ 5.93 µM)
  MIC90: 2 µg/mL (≈ 5.93 µM)
  Mode (MIC): 2 µg/mL
MDR SA; Respiratory, N = 157
  MIC50: 2 µg/mL (≈ 5.93 µM)
  MIC90: 2 µg/mL (≈ 5.93 µM)
  Mode (MIC): 2 µg/mL
MDR SA; Skin/Wound, N = 191
  MIC50: 2 µg/mL (≈ 5.93 µM)
  MIC90: 2 µg/mL (≈ 5.93 µM)
  Mode (MIC): 2 µg/mL
S. aureus
  % Resistant, CLSI: 0.0%
  % Susceptible, CLSI: 100.0%
  % Resistant, EUCAST: 0.0%
  % Susceptible, EUCAST: 100.0%
  MIC Range: 0.25 to 2 µg/mL
S. aureus; read-out: MIC 50%
  MIC50: 1 µg/mL (≈ 2.96 µM)
S. aureus; read-out: MIC 90%
  MIC90: 1 µg/mL (≈ 2.96 µM)
E. faecium [4]; [6]
  % Resistant, CLSI: 3.8%
  % Susceptible, CLSI: 96.2%
  % Resistant, EUCAST: 3.8%
  % Susceptible, EUCAST: 96.2%
E. faecium [4]; [7]
  % Resistant, CLSI: 0.0%
  % Susceptible, CLSI: 100.0%
  % Resistant, EUCAST: 0.0%
  % Susceptible, EUCAST: 100.0%
E. faecium [4]; Enterococcus faecium, Table 2, E. faecium Vancomycin-resistant (VanA-phenotype) (153), read-out: MIC 50%
  MIC50: 1 µg/mL (≈ 2.96 µM)
E. faecium [4]; Enterococcus faecium, Table 2, E. faecium Vancomycin-resistant (VanA-phenotype) (153), read-out: MIC 90%
  MIC90: 2 µg/mL (≈ 5.93 µM)
E. faecium [4]; Enterococcus faecium, Table 2, E. faecium Vancomycin-susceptible (257), read-out: MIC 90%
  MIC90: 1 µg/mL (≈ 2.96 µM)
E. faecium [4]; [8]
  MIC Range: 0.5 to 8 µg/mL
E. faecium [4]; [9]
  MIC 50%: 1 µg/mL (≈ 2.96 µM)
  MIC Range: 0.25 to 2 µg/mL
E. faecium [4]; VanA-phenotype E. faecium, criteria not stated
  % susceptible: 96.2%
E. faecalis [5]; E. faecalis (445)
  % Resistant, CLSI: 0.0%
  % Susceptible, CLSI: 100.0%
  % Resistant, EUCAST: 0.0%
  % Susceptible, EUCAST: 100.0%
E. faecalis [5]
  % susceptible: 100%
E. faecalis [5]; Table 2, E. faecalis (445), read-out: MIC 50%
  MIC50: 1 µg/mL (≈ 2.96 µM)
E. faecalis [5]; Table 2, E. faecalis (445), read-out: MIC 90%
  MIC90: 2 µg/mL (≈ 5.93 µM)
E. faecalis [5]; Table 2, E. faecalis (445), includes four VanA-phenotype strains
  MIC Range: 0.5 to 2 µg/mL
VRE
  susceptibility: susceptible

## CN(C)c1cc(NC(=O)CNC(C)(C)C)c(O)c2c1C[C@H]1C[C@H]3[C@H](N(C)C)C(O)=C(C(N)=O)C(=O)[C@@]3(O)C(O)=C1C2=O [tigecycline]
VRE
  susceptibility: susceptible

## CN[C@H](CC(C)C)C(=O)N[C@H]1C(=O)N[C@@H](CC(N)=O)C(=O)N[C@H]2C(=O)N[C@H]3C(=O)N[C@H](C(=O)N[C@H](C(=O)O)c4cc(O)cc(O)c4-c4cc3ccc4O)[C@H](O)c3ccc(c(Cl)c3)Oc3cc2cc(c3O[C@@H]2O[C@H](CO)[C@@H](O)[C@H](O)[C@H]2O[C@H]2C[C@](C)(N)[C@H](O)[C@H](C)O2)Oc2ccc(cc2Cl)[C@H]1O [Vancomycin, vancomycin]
[1]
  % Resistant, CLSI: 0.0%
[1]; Table 2
  MIC50: 2 µg/mL (≈ 1.38 µM)
  MIC90: 2 µg/mL (≈ 1.38 µM)
  MIC Range: 0.25 to 4 µg/mL
S. agalactiae; Blood, N 100
  MIC90: 0.5 µg/mL (≈ 0.345 µM)
S. agalactiae; Non-Blood, N 355
  MIC90: 0.5 µg/mL (≈ 0.345 µM)
E. faecium [2]; Blood, N 84
  MIC90: > 32 µg/mL
E. faecium [2]; Non-Blood, N 92
  MIC90: > 32 µg/mL
S. pyogenes; Blood, N 53
  MIC90: 0.25 µg/mL (≈ 0.173 µM)
S. pyogenes; Non-Blood, N 282
  MIC90: 0.25 µg/mL (≈ 0.173 µM)
E. faecalis [3]; Blood, N 116
  MIC90: 2 µg/mL (≈ 1.38 µM)
E. faecalis [3]; Non-Blood, N 411
  MIC90: 2 µg/mL (≈ 1.38 µM)
MDR SA; Blood, n = 108
  MIC50: 0.5 µg/mL (≈ 0.345 µM)
  MIC90: 1 µg/mL (≈ 0.69 µM)
  Mode (MIC): 0.5 µg/mL
MDR SA; Blood, n = 108, in µg/mL
  Range (MIC): 0.5-2
MDR SA; Respiratory, N = 157
  MIC50: 0.5 µg/mL (≈ 0.345 µM)
  MIC90: 1 µg/mL (≈ 0.69 µM)
  Mode (MIC): 0.5 µg/mL
  Range (MIC): ≦0.25-1
MDR SA; Skin/Wound, N = 191
  MIC50: 0.5 µg/mL (≈ 0.345 µM)
  MIC90: 1 µg/mL (≈ 0.69 µM)
  Mode (MIC): 0.5 µg/mL
  Range (MIC): ≦0.25-1
S. aureus
  % Resistant, CLSI: 0.0%
  % Susceptible, CLSI: 100.0%
  % Resistant, EUCAST: 0.0%
  % Susceptible, EUCAST: 100.0%
  MIC50: 1 µg/mL (≈ 0.69 µM)
  MIC90: 1 µg/mL (≈ 0.69 µM)
  MIC Range: 0.25 to 2 µg/mL
E. faecium [4]; [6]
  % Resistant, CLSI: 100.0%
  % Susceptible, CLSI: 0.0%
  % Resistant, EUCAST: 100.0%
  % Susceptible, EUCAST: 0.0%
E. faecium [4]; [7]
  % Resistant, CLSI: 0.0%
  % Susceptible, CLSI: 100.0%
  % Resistant, EUCAST: 0.0%
  % Susceptible, EUCAST: 100.0%
E. faecium [4]; [10]
  MIC50: > 16 µg/mL
  MIC90: > 16 µg/mL
E. faecium [4]; [11]
  MIC50: 1 µg/mL (≈ 0.69 µM)
  MIC90: 1 µg/mL (≈ 0.69 µM)
E. faecium [4]; Enterococcus faecium, read-out: MIC values
  MIC: > 4 µg/mL
E. faecium [4]; [8]
  MIC Range: >16 µg/mL
E. faecium [4]; [9]
  MIC Range: 0.5 to 4 µg/mL
E. faecalis [5]; E. faecalis (445)
  % Resistant, CLSI: 0.9%
  % Susceptible, CLSI: 99.1%
  % Resistant, EUCAST: 0.9%
  % Susceptible, EUCAST: 99.1%
E. faecalis [5]
  % susceptible: 99.1%
  MIC50: 1 µg/mL (≈ 0.69 µM)
  MIC90: 2 µg/mL (≈ 1.38 µM)
